One assay addresses T1, Cbl-b (Homo sapiens, UniProt Q13191).
T1 construct: biotin (biotinylated)
Nature of the assay: Cbl-b probe displacement HTRF binding assay. The note with it: 0.4 nM biotinylated Cbl-b, 150 nM BODIPY probe. Summed up:
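Biotinylated Cbl-b (0.4 nM) preincubated 60 min at RT with compound (20-point 1:2 series, 10 μM top), then 150 nM BODIPY probe for 15 min, then streptavidin-terbium detection. Buffer: 20 mM Hepes, 150 mM NaCl, 0.01% Triton X-100, 0.5 mM TCEP, 0.01% BSA. Loss of HTRF signal gave IC50 via four-parameter fit.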
On the technique in general: TR-FRET usually uses a lanthanide donor and a delayed reading to cut background.

A further assay has as its system Jurkat cells. Briefly: IL-2 secretion assay in CD3/CD28-activated Jurkat cells (AlphaLISA). The note with it: Homo sapiens, CD3/CD28 T Cell Activator, 24 h, IL-2 AlphaLISA. The class given is cell-based, human. The gist of the method:
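Jurkat cells (50,000/well) preincubated 1 h at 37° C with compound (16-point 1:2 series, final 10 μM to 300 pM) in Opti-MEM, then stimulated with CD3/CD28 activator for 24 h. Supernatant IL-2 read by AlphaLISA; EC50 from 4-parameter logistic fit.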

The values below come from patent publication US20250011318A1 (ARCUS BIOSCIENCES, INC., priority 2023, published 2025).

A value given as a limit tells only on which side of the number the result lay.

The IC50 is the concentration that inhibits the measured activity by half. A word on the EC50: it is the concentration needed to bring the measured effect to its halfway point.

T1 sequence (Q13191 whole entry, species assumed): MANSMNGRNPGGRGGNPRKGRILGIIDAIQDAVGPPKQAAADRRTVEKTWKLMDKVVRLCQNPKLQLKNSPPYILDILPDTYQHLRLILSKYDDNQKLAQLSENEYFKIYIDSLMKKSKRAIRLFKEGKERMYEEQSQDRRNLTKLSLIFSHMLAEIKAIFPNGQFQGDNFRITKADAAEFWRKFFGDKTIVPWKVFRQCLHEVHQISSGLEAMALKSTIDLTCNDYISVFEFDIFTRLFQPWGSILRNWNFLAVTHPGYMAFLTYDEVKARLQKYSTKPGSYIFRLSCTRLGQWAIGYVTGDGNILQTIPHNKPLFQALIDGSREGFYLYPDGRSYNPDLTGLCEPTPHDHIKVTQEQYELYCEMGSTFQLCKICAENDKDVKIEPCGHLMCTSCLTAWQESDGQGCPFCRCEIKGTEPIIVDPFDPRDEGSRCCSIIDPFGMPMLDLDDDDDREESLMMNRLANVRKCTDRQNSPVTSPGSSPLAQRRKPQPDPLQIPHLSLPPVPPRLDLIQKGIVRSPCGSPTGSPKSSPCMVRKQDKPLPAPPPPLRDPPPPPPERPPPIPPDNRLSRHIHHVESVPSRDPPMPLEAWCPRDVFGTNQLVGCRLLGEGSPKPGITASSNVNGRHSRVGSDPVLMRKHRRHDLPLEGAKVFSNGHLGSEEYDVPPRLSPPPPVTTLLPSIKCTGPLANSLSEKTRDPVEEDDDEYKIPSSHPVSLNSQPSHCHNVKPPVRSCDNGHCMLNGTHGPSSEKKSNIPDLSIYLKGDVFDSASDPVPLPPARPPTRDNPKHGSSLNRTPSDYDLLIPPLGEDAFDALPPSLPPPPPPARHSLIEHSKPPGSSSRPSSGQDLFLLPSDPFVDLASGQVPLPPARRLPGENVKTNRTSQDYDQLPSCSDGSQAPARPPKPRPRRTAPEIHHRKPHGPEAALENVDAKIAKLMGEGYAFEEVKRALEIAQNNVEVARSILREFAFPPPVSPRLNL

For the compound `Cn1cnnc1-c1cc(F)ccc1-c1cc(C2CC2)nc(-n2cc(C(F)(F)F)c3nc(CC4CCCCC4)[nH]c3c2=O)c1` [Example 43, 2-(Cyclohexylmethyl)-5-{6-cyclopropyl-4-[4-fluoro-2-(4-methyl-4H-1,2,4-triazol-3-yl)phenyl]-2-pyridyl}-7-(trifluoromethyl)-3,5-dihydro-1,3,5-triaza-4-indenone], the IC50 at Cbl-b was < 100 nM. For the same compound, the concentration giving a half-maximal response (EC50) in the assay on Jurkat cells was < 100 nM.
Consider `CC(=O)N1CCC[C@H]1c1nc2c(C(F)(F)F)cn(-c3cc(-c4ccc(F)cc4-c4nncn4C)cc(C4CC4)n3)c(=O)c2[nH]1` [Example 45, 2-[(2S)-1-acetylpyrrolidin-2-yl]-5-[6-cyclopropyl-4-[4-fluoro-2-(4-methyl-1,2,4-triazol-3-yl)phenyl]pyridin-2-yl]-7-(trifluoromethyl)-3H-imidazo[4,5-c]pyridin-4-one], for which the IC50 at Cbl-b was < 100 nM. This compound also gave an EC50 in the assay on Jurkat cells of 100 to 1000 nM.
Turning to `C[C@@H](c1nc2c(C(F)(F)F)cn(-c3cc(-c4ccc(F)cc4-c4nncn4C)cc(C4CC4)n3)c(=O)c2[nH]1)C1CC1` [Example 46, 2-[(1R)-1-cyclopropylethyl]-5-[6-cyclopropyl-4-[4-fluoro-2-(4-methyl-1,2,4-triazol-3-yl)phenyl]pyridin-2-yl]-7-(trifluoromethyl)-3H-imidazo[4,5-c]pyridin-4-one], at Cbl-b, the concentration for half-maximal inhibition (IC50) is < 100 nM. Further, the concentration for a half-maximal effect (EC50) in the assay on Jurkat cells was < 100 nM.
Regarding `Cn1cc(C#N)nc1-c1cc(F)ccc1-c1cc(C2CC2)nc(-n2cc(C(F)(F)F)c3nc([C@@H]4CCOC4)[nH]c3c2=O)c1` [Example 47, 2-[2-(2-{2-[(S)-Tetrahydro-3-furyl]-4-oxo-7-(trifluoromethyl)-3,5-dihydro-1,3,5-triaza-5-indenyl}-6-cyclopropyl-4-pyridyl)-5-fluorophenyl]-1-methyl-4-imidazolecarbonitrile], the half-maximal inhibitory concentration (IC50) on Cbl-b was < 100 nM. The EC50 in the assay with Jurkat cells is < 100 nM.
For the compound `Cn1cc(C#N)nc1-c1cc(F)ccc1-c1cc(C2CC2)nc(-n2cc(C(F)(F)F)c3nc([C@H]4CCOC4)[nH]c3c2=O)c1` [Example 48, 2-[2-(2-{2-[(R)-Tetrahydro-3-furyl]-4-oxo-7-(trifluoromethyl)-3,5-dihydro-1,3,5-triaza-5-indenyl}-6-cyclopropyl-4-pyridyl)-5-fluorophenyl]-1-methyl-4-imidazolecarbonitrile], the half-inhibitory concentration (IC50) on Cbl-b was < 100 nM. In the assay with Jurkat cells, the EC50 was < 100 nM.
For `C[C@H]1CCCN(Cc2nc3c(C(F)(F)F)cn(-c4cc(-c5ccc(F)cc5-c5nncn5C)cc(C5CC5)n4)c(=O)c3[nH]2)C1` [Example 50, 5-[6-cyclopropyl-4-[4-fluoro-2-(4-methyl-1,2,4-triazol-3-yl)phenyl]pyridin-2-yl]-2-[[(3S)-3-methylpiperidin-1-yl]methyl]-7-(trifluoromethyl)-3H-imidazo[4,5-c]pyridin-4-one], the IC50 at Cbl-b is < 100 nM. In the assay with Jurkat cells, the EC50 was < 100 nM.
On to `C[C@H]1CCCN(Cc2nc3c(C4CC4)cn(-c4cc(-c5ccc(F)cc5-c5nccn5C)cc(C5CC5)n4)c(=O)c3[nH]2)C1` [Example 51, 7-cyclopropyl-5-[6-cyclopropyl-4-[4-fluoro-2-(1-methylimidazol-2-yl)phenyl]pyridin-2-yl]-2-[[(3S)-3-methylpiperidin-1-yl]methyl]-3H-imidazo[4,5-c]pyridin-4-one], for which the half-maximal inhibitory concentration (IC50) at Cbl-b is < 100 nM. Also, in the assay on Jurkat cells, the EC50 is < 100 nM.
As for `C[C@H]1CCCN(Cc2cc3c(C4CC4)cn(-c4cc(-c5ccc(F)cc5-c5nccn5C)cc(C5CC5)n4)c(=O)c3[nH]2)C1` [Example 52, 2-{[(S)-3-methyl-1-piperidyl]methyl}-4-cyclopropyl-6-{6-cyclopropyl-4-[4-fluoro-2-(1-methyl-2-imidazolyl)phenyl]-2-pyridyl}-1,6-dihydro-1,6-diaza-7-indenone], the IC50 at Cbl-b is < 100 nM. In addition, the EC50 with Jurkat cells is < 100 nM.
As for `Cn1ccnc1-c1cc(F)ccc1-c1cc(C2CC2)nc(-n2cc(C3CC3)c3cc(CNC4(CO)CCC4)[nH]c3c2=O)c1` [Example 53, 4-cyclopropyl-6-{6-cyclopropyl-4-[4-fluoro-2-(1-methyl-2-imidazolyl)phenyl]-2-pyridyl}-2-{[1-(hydroxymethyl)cyclobutylamino]methyl}-1,6-dihydro-1,6-diaza-7-indenone], at Cbl-b, the half-inhibitory concentration (IC50) is < 100 nM. In addition, the concentration giving a half-maximal response (EC50) in the assay with Jurkat cells was < 100 nM.
Consider `C[C@@H]1CN(Cc2cc3c(C4CC4)cn(-c4cc(-c5ccc(F)cc5-c5nccn5C)cc(C5CC5)n4)c(=O)c3[nH]2)CCO1` [Example 54, 2-{[(R)-2-methyl-4-morpholinyl]methyl}-4-cyclopropyl-6-{6-cyclopropyl-4-[4-fluoro-2-(1-methyl-2-imidazolyl)phenyl]-2-pyridyl}-1,6-dihydro-1,6-diaza-7-indenone], for which, at Cbl-b, the 50% inhibitory concentration (IC50) is < 100 nM. Also, the 50% effective concentration (EC50) with Jurkat cells was < 100 nM.
Consider `Cn1ccnc1-c1cc(F)ccc1-c1cc(C2CC2)nc(-n2cc(C3CC3)c3cc(CNC4(C)CCC4)[nH]c3c2=O)c1` [Example 55, 4-cyclopropyl-6-{6-cyclopropyl-4-[4-fluoro-2-(1-methyl-2-imidazolyl)phenyl]-2-pyridyl}-2-[(1-methylcyclobutylamino)methyl]-1,6-dihydro-1,6-diaza-7-indenone], for which the 50% inhibitory concentration (IC50) at Cbl-b is < 100 nM. Besides, the 50% effective concentration (EC50) with Jurkat cells was < 100 nM.
As to `Cn1ccnc1-c1cc(F)ccc1-c1cc(C2CC2)nc(-n2cc(C3CC3)c3cc(CN4C[C@@H]5CC[C@H]4C5)[nH]c3c2=O)c1` [Example 56, 2-({(1S,4R)-2-azabicyclo[2.2.1]hept-2-yl}methyl)-4-cyclopropyl-6-{6-cyclopropyl-4-[4-fluoro-2-(1-methyl-2-imidazolyl)phenyl]-2-pyridyl}-1,6-dihydro-1,6-diaza-7-indenone], the half-inhibitory concentration (IC50) at Cbl-b was < 100 nM. The 50% effective concentration (EC50) with Jurkat cells was in the range of 100 to 1000 nM.
`Cn1ccnc1-c1cc(F)ccc1-c1cc(C2CC2)nc(-n2cc(C3CC3)c3cc(CN[C@@H]4CCCOC4)[nH]c3c2=O)c1` [Example 57, 2-{[(R)-tetrahydro-2H-pyran-3-ylamino]methyl}-4-cyclopropyl-6-{6-cyclopropyl-4-[4-fluoro-2-(1-methyl-2-imidazolyl)phenyl]-2-pyridyl}-1,6-dihydro-1,6-diaza-7-indenone]: on Cbl-b, the concentration for half-maximal inhibition (IC50) was < 100 nM. In the assay with Jurkat cells, the EC50 is < 100 nM.
In the case of `Cn1ccnc1-c1cc(F)ccc1-c1cc(C2CC2)nc(-n2cc(C3CC3)c3cc(CN4CCC[C@H](O)C4)[nH]c3c2=O)c1` [Example 58, 2-{[(S)-3-hydroxy-1-piperidyl]methyl}-4-cyclopropyl-6-{6-cyclopropyl-4-[4-fluoro-2-(1-methyl-2-imidazolyl)phenyl]-2-pyridyl}-1,6-dihydro-1,6-diaza-7-indenone], the half-inhibitory concentration (IC50) at Cbl-b is < 100 nM. Besides, the EC50 in the assay with Jurkat cells was < 100 nM.
Consider `Cn1ccnc1-c1cc(F)ccc1-c1cc(C2CC2)nc(-n2cc(C3CC3)c3cc(CN[C@H]4CCOC4)[nH]c3c2=O)c1` [Example 59, 2-{[(S)-tetrahydro-3-furylamino]methyl}-4-cyclopropyl-6-{6-cyclopropyl-4-[4-fluoro-2-(1-methyl-2-imidazolyl)phenyl]-2-pyridyl}-1,6-dihydro-1,6-diaza-7-indenone], for which the IC50 at Cbl-b was < 100 nM. In addition, the EC50 in the assay on Jurkat cells is < 100 nM.
